The assay addresses T1, PPARα (Homo sapiens, UniProt Q07869, I272F).
T1 construct: gene PPARA; hPPARα LBD
T1 sequence (Q07869 199-468 I272F limits assumed): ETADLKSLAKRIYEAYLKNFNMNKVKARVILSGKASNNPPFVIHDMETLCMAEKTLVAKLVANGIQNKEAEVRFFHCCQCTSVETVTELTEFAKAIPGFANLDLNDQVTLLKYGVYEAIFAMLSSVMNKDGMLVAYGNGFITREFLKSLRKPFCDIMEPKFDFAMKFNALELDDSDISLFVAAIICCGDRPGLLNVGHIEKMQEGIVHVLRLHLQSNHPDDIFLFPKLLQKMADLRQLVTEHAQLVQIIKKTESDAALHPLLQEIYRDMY
The assay is described as follows: transactivation reporter assay at […]. In kind it is cell-based. (In general: In a reporter assay the amount or activity of a reporter protein is the signal.)

Regarding `CC(C)(Oc1ccc(C(=O)c2ccc(Cl)cc2)cc1)C(=O)O` [fenofibric acid], the “transactivation reporter assay at 10 μM” value is “while fenofibric acid showed comparable activity between WT and Ile272Phe”.
